Laboratory results taken from patent US6737383B1, “Herbicidal oxadiazolidines” (priority 1999, dated 2004).

Key:
[1] = tested on: purple nutsedge; experiment: Test B pre/postemergence purple nutsedge; format: in vivo, Cyperus rotundus
Method in brief: (§1)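 Herbicidal effect was estimated by eye on a ten-point control scale after plants spent twelve to sixteen days in a greenhouse following soil or foliar treatment. Foliar sprays targeted plants at one to four leaves; all doses were formulated in a non-phytotoxic solvent with surfactant.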

[2] = tested on: cocklebur; experiment: Test B pre/postemergence cocklebur; format: in vivo, Xanthium strumarium
Method in brief: as §1

[3] = tested on: blackgrass; experiment: Test B pre/postemergence blackgrass; format: in vivo, Alopecurus myosuroides
Method in brief: as §1

[4] = tested on: crabgrass; experiment: Test B pre/postemergence crabgrass; format: in vivo, Digitaria sanguinalis
Method in brief: as §1

[5] = tested on: surinam grass; experiment: Test B pre/postemergence surinam grass; format: in vivo, Brachiaria decumbens
Method in brief: as §1

[6] = tested on: wheat; experiment: Test B pre/postemergence wheat; format: in vivo, Triticum aestivum; settings: for Plant response rating, Wheat: Rate 250 g/ha
Method in brief: as §1

[7] = tested on: morningglory; experiment: Test B pre/postemergence morningglory; format: in vivo, Ipomoea hederacea
Method in brief: as §1

[8] = tested on: giant foxtail; experiment: Test B pre/postemergence giant foxtail; format: in vivo, Setaria faberii
Method in brief: as §1

[9] = tested on: bedstraw; experiment: Test B pre/postemergence bedstraw; format: in vivo, Galium aparine; settings: Preemergence
Method in brief: as §1

[10] = tested on: sugar beet; experiment: Test B pre/postemergence sugar beet; format: in vivo, Beta vulgaris; settings: for Plant response rating, Sugarbeets: Rate 250 g/ha
Method in brief: as §1

[11] = tested on: rape; experiment: Test B pre/postemergence rape; format: in vivo, Brassica napus
Method in brief: as §1

[12] = tested on: wild oat; experiment: Test B pre/postemergence wild oat; format: in vivo, Avena fatua; settings: for Plant response rating, Wild oats: Rate 250 g/ha
Method in brief: as §1

[13] = tested on: pigweed; experiment: Test B pre/postemergence pigweed; format: in vivo, Amaranthus retroflexus
Method in brief: as §1

[14] = tested on: velvetleaf; experiment: Test B pre/postemergence velvetleaf; format: in vivo, Abutilon theophrasti; settings: for Plant response rating, Velvetleaf: Rate 250 g/ha
Method in brief: as §1

[15] = tested on: soybean; experiment: Test B pre/postemergence soybean; format: in vivo, Glycine max
Method in brief: as §1

[16] = tested on: corn; experiment: Test B pre/postemergence corn; format: in vivo, Zea mays
Method in brief: as §1

[17] = Postemergence, Rate 62 g/ha, scale 0 to 10, 0 is no effect, 10 is complete control
[18] = Postemergence, Rate 125 g/ha, scale of 0 to 10 where 0 is no effect and 10 is complete control
[19] = Postemergence, Rate 250 g/ha, scale 0 to 10, 0 no effect, 10 complete control
[20] = Preemergence, Rate 62 g/ha, scale 0 to 10 (0 no effect, 10 complete control)
[21] = Preemergence, Rate 125 g/ha, scale 0 to 10 (0 no effect, 10 complete control)
[22] = Preemergence, Rate 250 g/ha, scale of 0 to 10 where 0 is no effect and 10 is complete control
[23] = Preemergence, Rate 500 g/ha, scale 0 (no effect) to 10 (complete control)
[24] = Rate 500 g/ha, Postemergence, scale 0 to 10, 0 no effect, 10 complete control
[25] = Preemergence, Rate 125 g/ha, 0 is no effect, 10 is complete control
[26] = Preemergence, scale of 0 to 10 where 0 is no effect and 10 is complete control
[27] = Postemergence, scale 0 to 10, 0 is no effect, 10 is complete control
[28] = Rate 250 g/ha, Postemergence, scale 0 to 10, 0 is no effect, 10 is complete control

## CCCn1c(=O)on(C(=O)N(c2ccccc2)C(C)C)c1=O [Compound 92]
[1]; [17]
  Nutsedge plant response rating: 0
[1]; [18]
  Nutsedge plant response rating: 0
[1]; [19]
  Nutsedge plant response rating: 0
[1]; [20]
  Nutsedge plant response rating: 0
[1]; [21]
  Plant response rating, Nutsedge: 0
[1]; [22]
  Plant response rating, Nutsedge: 0
[1]; [23]
  Nutsedge plant response rating: 0
[1]; [24]
  Nutsedge plant response rating: 2
[2]; [17]
  Cocklebur plant response rating: 0
[2]; [18]
  Cocklebur plant response rating: 1
[2]; [19]
  Cocklebur plant response rating: 2
[2]; [20]
  Cocklebur plant response rating: 0
[2]; [22]
  Plant response rating, Cocklebur: 0
[2]; [24]
  Cocklebur plant response rating: 3
[3]; [17]
  Blackgrass plant response rating: 7
[3]; [18]
  Blackgrass plant response rating: 7
[3]; [19]
  Blackgrass plant response rating: 7
[3]; [20]
  Blackgrass plant response rating: 9
[3]; [21]
  Plant response rating, Blackgrass: 10
[3]; [22]
  Plant response rating, Blackgrass: 10
[3]; [23]
  Blackgrass plant response rating: 10
[3]; [24]
  Blackgrass plant response rating: 8
[4]; [17]
  Crabgrass plant response rating: 6
[4]; [18]
  Crabgrass plant response rating: 8
[4]; [19]
  Crabgrass plant response rating: 9
[4]; [20]
  Crabgrass plant response rating: 8
[4]; [21]
  Plant response rating, Crabgrass: 10
[4]; [22]
  Plant response rating, Crabgrass: 8
[4]; [23]
  Crabgrass plant response rating: 10
[4]; [24]
  Crabgrass plant response rating: 9
[5]; [17]
  B. signalgrass plant response rating: 3
[5]; [19]
  B. signalgrass plant response rating: 7
[5]; [20]
  B. signalgrass plant response rating: 10
[5]; [22]
  Plant response rating, B. signalgrass: 10
[5]; Rate 125 g/ha, Postemergence, scale 0 to 10, 0 no effect, 10 complete control
  B. signalgrass plant response rating: 5
[5]; Rate 500 g/ha, Postemergence, scale of 0 to 10 where 0 is no effect and 10 is complete control
  B. signalgrass plant response rating: 7
[6]; [17]
  Wheat plant response rating: 0
[6]; [18]
  Wheat plant response rating: 2
[6]; [20]
  Wheat plant response rating: 3
[6]; [25]
  Wheat plant response rating (0 to 10 scale): 6
[6]; [26]
  Plant response rating, Wheat: 7
[6]; [23]
  Wheat plant response rating: 7
[6]; [27]
  Plant response rating, Wheat: 5
[6]; [24]
  Wheat plant response rating: 6
[7]; [17]
  Morningglory plant response rating: 7
[7]; [18]
  Morningglory plant response rating: 8
[7]; [19]
  Morningglory plant response rating: 10
[7]; [20]
  Morningglory plant response rating: 0
[7]; [21]
  Plant response rating, Morningglory: 0
[7]; [22]
  Plant response rating, Morningglory: 0
[7]; [23]
  Morningglory plant response rating: 3
[7]; [24]
  Morningglory plant response rating: 10
[8]; [17]
  Giant foxtail plant response rating: 8
[8]; [18]
  Giant foxtail plant response rating: 8
[8]; [19]
  Giant foxtail plant response rating: 9
[8]; [20]
  Giant foxtail plant response rating: 10
[8]; [21]
  Plant response rating, Giant foxtail: 10
[8]; [22]
  Plant response rating, Giant foxtail: 10
[8]; [23]
  Giant foxtail plant response rating: 10
[8]; [24]
  Giant foxtail plant response rating: 9
[9]; Rate 62 g/ha, scale 0 to 10 (0 no effect, 10 complete control)
  Bedstraw plant response rating: 0
[9]; Rate 125 g/ha, scale 0 to 10 (0 no effect, 10 complete control)
  Plant response rating, Bedstraw: 0
[9]; Rate 250 g/ha, scale of 0 to 10 where 0 is no effect and 10 is complete control
  Plant response rating, Bedstraw: 0
[9]; Rate 500 g/ha, scale 0 (no effect) to 10 (complete control)
  Bedstraw plant response rating: 1
[10]; [17]
  Sugarbeets plant response rating: 1
[10]; [18]
  Sugarbeets plant response rating: 4
[10]; [20]
  Sugarbeets plant response rating: 2
[10]; [25]
  Sugarbeets plant response rating (0 to 10 scale): 6
[10]; [26]
  Plant response rating, Sugarbeets: 8
[10]; [23]
  Sugarbeets plant response rating: 9
[10]; [27]
  Plant response rating, Sugarbeets: 6
[10]; [24]
  Sugarbeets plant response rating: 6
[11]; [17]
  Rape plant response rating: 2
[11]; [18]
  Rape plant response rating: 3
[11]; [19]
  Rape plant response rating: 4
[11]; [20]
  Rape plant response rating: 4
[11]; [21]
  Plant response rating, Rape: 9
[11]; [22]
  Plant response rating, Rape: 10
[11]; [23]
  Rape plant response rating: 10
[11]; [24]
  Rape plant response rating: 6
[12]; [17]
  Wild oats plant response rating: 0
[12]; [18]
  Wild oats plant response rating: 1
[12]; [20]
  Wild oats plant response rating: 7
[12]; [25]
  Wild oats plant response rating (0 to 10 scale): 8
[12]; [26]
  Plant response rating, Wild oats: 9
[12]; [23]
  Wild oats plant response rating: 10
[12]; [27]
  Plant response rating, Wild oats: 1
[12]; [24]
  Wild oats plant response rating: 5
[13]; [17]
  Redroot pigweed plant response rating: 2
[13]; [18]
  Redroot pigweed plant response rating: 3
[13]; [20]
  Redroot pigweed plant response rating: 2
[13]; [21]
  Plant response rating, Redroot pigweed: 7
[13]; [22]
  Plant response rating, Redroot pigweed: 9
[13]; [23]
  Redroot pigweed plant response rating: 10
[13]; [28]
  Plant response rating, Redroot pigweed: 4
[13]; [24]
  Redroot pigweed plant response rating: 5
[14]; [17]
  Velvetleaf plant response rating: 0
[14]; [18]
  Velvetleaf plant response rating: 0
[14]; [20]
  Velvetleaf plant response rating: 4
[14]; [25]
  Velvetleaf plant response rating (0 to 10 scale): 6
[14]; [26]
  Plant response rating, Velvetleaf: 6
[14]; [23]
  Velvetleaf plant response rating: 8
[14]; [27]
  Plant response rating, Velvetleaf: 0
[15]; [17]
  Soybean plant response rating: 3
[15]; [18]
  Soybean plant response rating: 3
[15]; [20]
  Soybean plant response rating: 0
[15]; [21]
  Plant response rating, Soybean: 3
[15]; [22]
  Plant response rating, Soybean: 4
[15]; [23]
  Soybean plant response rating: 9
[15]; [28]
  Plant response rating, Soybean: 3
[15]; [24]
  Soybean plant response rating: 5
[16]; [17]
  Corn plant response rating: 0
[16]; [18]
  Corn plant response rating: 0
[16]; [19]
  Corn plant response rating: 0
[16]; [20]
  Corn plant response rating: 0
[16]; [21]
  Plant response rating, Corn: 2
[16]; [22]
  Plant response rating, Corn: 5
[16]; [23]
  Corn plant response rating: 9
[16]; [24]
  Corn plant response rating: 4
